Results on 1 compound are retold here after US20230085307A1, “PYRIDAZINONE COMPOUND AND HERBICIDE” (NISSAN CHEMICAL CORPORATION, priority 2019, published 2023).

Test [1] has as its system barnyard grass. The test is described as follows: Test Example 3: herbicidal effect by foliage application, Wagner pot (Table 18, symbol H). It is filed as in vivo, barnyard grass (Echinochloa crus-galli). Particulars: 320 g/ha. The essentials:
(§1)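 Plants were sown in alluvial soil held under 0.1–0.5 cm standing water and grown 14 days in a greenhouse at 25–30 °C. An emulsifiable formulation, water-diluted to the set dose, was then sprayed onto the foliage, and effects were scored three weeks later using previously defined criteria.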

Test [2] has as its system redroot pigweed. The test is described as follows: Test Example 4: herbicidal effect by soil treatment (Table 19, symbol N). It counts as in vivo, redroot pigweed (Amaranthus retroflexus). Particulars: AAH 320 g/ha. The essentials: (§2)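 In this soil treatment, the formulated compound reached the seeds only through the soil: seeds were buried about 1.5 cm deep in sterilized diluvial soil, then the diluted emulsion was sprayed over the surface. After three weeks at 25° C. to 30° C. in a greenhouse, effects were graded on criteria from an earlier test.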

The subject of test [3] is Japanese bulrush. The experiment in a line: Test Example 2: herbicidal activity, application during weed generation under submerged conditions (Table 17, symbol B). It counts as in vivo, Japanese bulrush (Schoenoplectus juncoides). Conditions: AAH 320 g/ha; application during weed generation, submerged conditions. The essentials: (§3)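 3-wk visual-criteria score after one water-surface dose. Emulsion formulation, water-diluted to set rate; applied at 1–2 leaf stage; alluvial soil, 4 cm standing water; seeds co-sown; greenhouse 25–30° C.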

Test [4] relates to wild oat. The test is described as follows: Test Example 5: herbicidal effect by foliage application, plastic box (Table 20, symbol I). It counts as in vivo, wild oat (Avena fatua). Particulars: foliage application, AAH 320 g/ha, three weeks after application. The essentials:
(§4)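 Plants were sown into sterilized diluvial soil under about 1.5 cm cover and kept in a greenhouse at 25° C. to 30° C. Fourteen days on, foliage received an even spray of the diluted emulsion. Herbicidal or crop effect was judged three weeks afterwards.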

Test [5] concerns velvetleaf. The experiment in a line: Test Example 4: herbicidal effect by soil treatment (Table 19, symbol M). It counts as in vivo, velvetleaf (Abutilon theophrasti). Conditions: AAH 320 g/ha. The essentials:
as §2

For test [6], the system named is barnyard grass. The experiment in a line: Test Example 4: herbicidal effect by soil treatment (Table 19, symbol H). Conditions: AAH 320 g/ha. It counts as in vivo, barnyard grass (Echinochloa crus-galli). The essentials: as §2
The test system of test [7] is persian speedwell. The experiment in a line: Test Example 5: herbicidal effect by foliage application, plastic box (Table 20, symbol R). Conditions: foliage application, AAH 320 g/ha, three weeks after application. It is filed as in vivo, Persian speedwell (Veronica persica). The essentials:
as §4

The subject of test [8] is southern crabgrass. The experiment in a line: Test Example 4: herbicidal effect by soil treatment (Table 19, symbol F). It counts as in vivo, southern crabgrass (Digitaria ciliaris). Conditions: AAH 320 g/ha. The essentials:
as §2

Test [9] relates to Italian ryegrass. The test is described as follows: Test Example 4: herbicidal effect by soil treatment (Table 19, symbol K). It is filed as in vivo, Italian ryegrass (Lolium multiflorum). Particulars: AAH 320 g/ha. An outline of the steps: as §2
Test [10] concerns redroot pigweed. The experiment in a line: Test Example 5: herbicidal effect by foliage application, plastic box (Table 20, symbol N). Conditions: foliage application, AAH 320 g/ha, three weeks after application. It counts as in vivo, redroot pigweed (Amaranthus retroflexus). An outline of the steps:
as §4

Test [11] has as its system rice flat sedge. The experiment in a line: Test Example 3: herbicidal effect by foliage application, Wagner pot (Table 18, symbol E). It is filed as in vivo, rice flat sedge (Cyperus iria). Conditions: 320 g/ha. An outline of the steps: as §1
The subject of test [12] is Italian ryegrass. The experiment in a line: Test Example 5: herbicidal effect by foliage application, plastic box (Table 20, symbol K). It is filed as in vivo, Italian ryegrass (Lolium multiflorum). Conditions: foliage application, AAH 320 g/ha, three weeks after application. The essentials:
as §4

Test [13] deals with green foxtail. The test is described as follows: Test Example 5: herbicidal effect by foliage application, plastic box (Table 20, symbol G). It is filed as in vivo, green foxtail (Setaria viridis). Conditions: foliage application, AAH 320 g/ha, three weeks after application. The essentials: as §4
Test [14] has as its system lambsquarters. The test is described as follows: Test Example 4: herbicidal effect by soil treatment (Table 19, symbol O). It is filed as in vivo, lambsquarters (Chenopodium album). Conditions: AAH 320 g/ha. An outline of the steps:
as §2

Test [15] concerns windgrass. The experiment in a line: Test Example 5: herbicidal effect by foliage application, plastic box (Table 20, symbol L). It is filed as in vivo, windgrass (Apera spica-venti). Conditions: foliage application, AAH 320 g/ha, three weeks after application. An outline of the steps: as §4
Test [16] deals with blackgrass. The test is described as follows: Test Example 5: herbicidal effect by foliage application, plastic box (Table 20, symbol J). It counts as in vivo, blackgrass (Alopecurus myosuroides). Conditions: foliage application, AAH 320 g/ha, three weeks after application. An outline of the steps: as §4
In test [17] the test system is chickweed. The test is described as follows: Test Example 4: herbicidal effect by soil treatment (Table 19, symbol P). Particulars: AAH 320 g/ha. It counts as in vivo, common chickweed (Stellaria media). An outline of the steps:
as §2

For test [18], the system named is velvetleaf. The test is described as follows: Test Example 5: herbicidal effect by foliage application, plastic box (Table 20, symbol M). It counts as in vivo, velvetleaf (Abutilon theophrasti). Particulars: foliage application, AAH 320 g/ha, three weeks after application. An outline of the steps: as §4
Test [19] deals with wild oat. The experiment in a line: Test Example 4: herbicidal effect by soil treatment (Table 19, symbol I). It counts as in vivo, wild oat (Avena fatua). Particulars: AAH 320 g/ha. The essentials:
as §2

In test [20] the test system is green foxtail. The experiment in a line: Test Example 4: herbicidal effect by soil treatment (Table 19, symbol G). It is filed as in vivo, green foxtail (Setaria viridis). Conditions: AAH 320 g/ha. The essentials: as §2
The test system of test [21] is chickweed. The experiment in a line: Test Example 5: herbicidal effect by foliage application, plastic box (Table 20, symbol P). It counts as in vivo, common chickweed (Stellaria media). Particulars: foliage application, AAH 320 g/ha, three weeks after application. An outline of the steps: as §4
The subject of test [22] is late watergrass. The test is described as follows: Test Example 2: herbicidal activity, application during weed generation under submerged conditions (Table 17, symbol A). It counts as in vivo, late watergrass (Echinochloa oryzicola). Conditions: AAH 320 g/ha; application during weed generation, submerged conditions. An outline of the steps:
as §3

The structures appear in SMILES notation.

For `CCCC(=O)Oc1c(C)nn(C)c(=O)c1-c1c(-c2ccc([N+](=O)[O-])cc2)sc2ccccc12` [1-152], the “herbicidal effect on H (barnyard grass), rating 0-5” value in [1] is 5 (Herbicidal rate of 90% or more (almost completely withered)). In test [2], the “N: redroot pigweed, herbicidal effect rating” value is 3 (Herbicidal rate of 40% or more and less than 70%). Besides, the “herbicidal effect rating, B: Japanese bulrush” value in test [3] was 3 (Herbicidal rate of 40% or more and less than 70%). Also, the “I: wild oat, herbicidal effect” value in test [4] is 0 (Herbicidal rate of 5% or less (almost no effect)). The “M: velvetleaf, herbicidal effect rating” value in [5] is 0 (Herbicidal rate of 5% or less (almost no effect)). In addition, the “H: barnyard grass, herbicidal effect rating” value in test [6] was 3 (Herbicidal rate of 40% or more and less than 70%). For the same compound, the “R: persian speedwell, herbicidal effect” value in test [7] is 5 (Herbicidal rate of 90% or more (almost completely withered)). Moreover, the “F: southern crabgrass, herbicidal effect rating” value in test [8] is 1 (Herbicidal rate of 5% or more and less than 20%). For the same compound, in test [9], the “K: Italian ryegrass, herbicidal effect rating” value is reported as 0 (Herbicidal rate of 5% or less (almost no effect)). In test [10], the “N: redroot pigweed, herbicidal effect” value is 5 (Herbicidal rate of 90% or more (almost completely withered)). The “herbicidal effect on E (rice flat sedge), rating 0-5” value in test [11] was 3 (Herbicidal rate of 40% or more and less than 70%). In test [12], the “K: Italian ryegrass, herbicidal effect” value is 4 (Herbicidal rate of 70% or more and less than 90%). The “G: green foxtail, herbicidal effect” value in [13] was 5 (Herbicidal rate of 90% or more (almost completely withered)). For the same compound, in test [14], the “O: lambsquarters, herbicidal effect rating” value is given as 0 (Herbicidal rate of 5% or less (almost no effect)). The “L: windgrass, herbicidal effect” value in [15] is on record as 0 (Herbicidal rate of 5% or less (almost no effect)). The “J: blackgrass, herbicidal effect” value in [16] is 0 (Herbicidal rate of 5% or less (almost no effect)). Besides, in test [17], the “P: chickweed, herbicidal effect rating” value is 3 (Herbicidal rate of 40% or more and less than 70%). For the same compound, in [18], the “M: velvetleaf, herbicidal effect” value is 5 (Herbicidal rate of 90% or more (almost completely withered)). The “I: wild oat, herbicidal effect rating” value in test [19] is listed as 0 (Herbicidal rate of 5% or less (almost no effect)). Besides, the “G: green foxtail, herbicidal effect rating” value in test [20] is 2 (Herbicidal rate of 20% or more and less than 40%). In addition, the “P: chickweed, herbicidal effect” value in test [21] is on record as 5 (Herbicidal rate of 90% or more (almost completely withered)). Also, the “herbicidal effect rating, A: late watergrass” value in test [22] was 3 (Herbicidal rate of 40% or more and less than 70%).
